Here are results for four molecules from patent US20170239212A1, “[…] AND USE THEREOF AS ANTIVIRAL AGENTS” (priority 2014, published 2017).

As a reminder, the CC50 is the concentration at which the toxic effect on the cells reaches its halfway point. What is called EC50 is the concentration that produces a half-maximal response. By Ki is commonly meant the dissociation constant of the complex between target and ligand, obtained from inhibition or displacement.

One series has as its system Jurkat cell line. Nature of the series: in vitro. It is filed as cell-based. The conditions noted are these: Jurkat cells, knock down of cellular ATP. On the procedure: (§1) The compounds were also tested in the T cell derived Jurkat cell line transfected with a luciferase reporter under control of an HIV long terminal repeat (LTR) promoter. Specifically, EC50 and CC50 values were determined in parallel using 10 concentrations of compound from 3 fold serial dilutions starting a 5 uM as the highest concentration. Cells and media were added to compounds with a final concentration of DMSO of 1% and incubated at 37° C., 5% CO2 for 24, 48 and 72 hours. EC50 was measured by induced luciferase activity detected by the use of the Steady-Glo® Luciferase reagent (PROMEGA) with an EnVision (Perkin-Elmer) plate reader. CC50 was determined by the dose dependent knock down of cellular ATP detected by the use of CellTiter-Glo® Luminescent Cell Viability reagent (PROMEGA) with an EnVision (Perkin-Elmer) plate reader.

Series [1] deals with HIV long terminal repeat (LTR) promoter. Nature of the series: in vitro. In kind it is cell-based. As to conditions: Jurkat cells; for EC50: LTR-luciferase, incubated 24, 48 and 72 hours (time of the listed values not stated); for selectivity ratio: human. On the procedure: as §1
Series [2] relates to human osteosarcoma (HOS) cells. The series is described as follows: HOS cell viability (CellTiter-Glo, cellular ATP). In kind it is cell-based. Further details: unit not given here. As to conditions: knock down of cellular ATP. On the procedure: as §1, with “Specifically,” for “The compounds were also tested in the T cell derived Jurkat cell line transfected with a luciferase reporter under control of an HIV long terminal repeat (LTR) promoter. Specifically,”
In general terms: In ATP-based viability assays light output follows the ATP content of the culture.

The test system of series [3] is HIV long terminal repeat (LTR) promoter. Nature of the series: HOS LTR stimulation assay (luciferase reporter). It is filed as cell-based. The conditions noted are these: HOS cells; for Max signal (% of control): LTR-luciferase signal; for EC50: LTR-luciferase, incubated 24, 48 and 72 hours (time of the listed values not stated), read-out: EC50; for Conc (uM) at Max: concentration at maximal LTR-luciferase signal. On the procedure:
In the assay, non T cell derived human osteosarcoma (HOS) cells are transfected with a luciferase reporter under control of an HIV long terminal repeat (LTR) promoter. Compounds that stimulate the HIV LTR promoter will produce luciferase in a dose dependent manner.
as §1, with “Specifically,” for “The compounds were also tested in the T cell derived Jurkat cell line transfected with a luciferase reporter under control of an HIV long terminal repeat (LTR) promoter. Specifically,”
The error bars represent the average and the standard error of the mean of at least three independent experiments.
A general note: In a reporter assay the amount or activity of a reporter protein is the signal.

A further series can be described thus: in vitro. It is filed as cell-based. As to conditions: human; Jurkat cells, knock down of cellular ATP. On the procedure:
as §1

In series [4] the target is mouse recombinant isozyme PKCα (Mus musculus, UniProt P20444). Nature of the series: [3H]PDBu binding assay (polyethylene glycol precipitation). The conditions noted are these: calcium and phosphatidylserine present, 2 nM [3H]PDBu, read-out: Ki (inhibitory dissociation constant, displacement of [3H]PDBu). On the procedure: [^3H]PDBu Binding Assay. The inhibitory dissociation constant (Ki) of each bryologue ligand was determined by the ability of the ligand to displace bound [20-^3H]phorbol 12,13-dibutyrate (PDBu) from mouse recombinant isozyme PKCα in the presence of calcium and phosphatidylserine, using a polyethylene glycol precipitation assay developed in our laboratory as described elsewhere. Briefly, the assay mixture (250 μL) contained 50 mM Tris-HCl (pH 7.4 at room temperature), 100 μg/mL phosphatidylserine, 0.1 mM Ca^2+, 4 mg/mL bovine immunoglobulin G and 0.003% Tx-100, 2 nM [^3H]PDBu and various concentrations of the competing ligand. […] The radioactivity was determined by scintillation counting, using Cytoscint (ICN, Costa Mesa, Calif.). Specific binding was calculated as the difference between total and nonspecific PDBu binding. The Inhibitory dissociation constants (Ki) were calculated using the method previously described by Blumberg and Lewin.
The inhibitory dissociation constant (Ki) of MERLE 28 was determined by the ability of the ligand to displace bound [20-^3H]phorbol 12,13-dibutyrate (PDBu) from mouse recombinant isozyme PKCα in the presence of calcium and phosphatidylserine, using a polyethylene glycol precipitation assay previously described by Blumberg and Lewin. […] The radioactivity was determined by scintillation counting, using Cytoscint (ICN, Costa Mesa, Calif.). […]
For orientation: Displacement assays read how much labelled ligand stays bound in the presence of the test substance.

On to `COC(=O)/C=C1/C[C@H]2C[C@]3(O)O[C@H](C[C@@H](O)CC(=O)O[C@@H]([C@@H](C)O)C[C@@H]4C/C(=C\C(=O)OC)[C@H](OC(C)=O)[C@@](O)(O4)C(C)(C)/C=C/[C@@H](C1)O2)C[C@H](OC(C)=O)C3(C)C` [Bryostatin 7], for which, in the series with Jurkat cell line, the CC50 is 4.6 nM. Besides, the response in series [1] was half-maximal at 1 nM (EC50). Moreover, the “Selectivity (CC50:EC50)” value in series [1] (ratio of the CC50 to the EC50) is reported as 4.6. The molecule further yielded a CCEC50 in series [2] of 6.24. In addition, in series [3], the “Max signal (% of control)” value was 250 % of control, the EC50 was determined as 6 nM and the “Conc (uM) at Max” value came to 0.07 µM.
As for `C=C1C[C@@H]2C[C@@H]3CC(=C)C[C@H](/C=C/C(C)(C)[C@]4(O)O[C@@H](C/C(=C\C(=O)OC)[C@@H]4OC(=O)/C=C/C=C/CCC)C[C@H]([C@@H](C)O)OC(=O)C[C@H](O)C[C@H](C1)O2)O3` [MERLE 23], the values for the EC50 in series [1] (Human immunodeficiency virus 1) and in series [3] (Human immunodeficiency virus 1) were 0.2 nM and 2 nM, respectively. The selectivity ratio in series [1] (ratio of the CC50 to the EC50) is 25. This molecule came in with a CC50 in the series “in vitro” of 5 nM. The molecule also came in with a CCEC50 in series [2] of 39.57. The “Max signal (% of control)” value in series [3] was 166 % of control. Besides, the “Conc (uM) at Max” value in series [3] came to 0.07 µM.
Consider `C=C1C[C@H]2C[C@H]3C[C@@H](OC(C)=O)C[C@@H](C[C@@H](O)CC(=O)O[C@@H]([C@@H](C)O)C[C@@H]4C/C(=C\C(=O)OC)[C@H](OC(=O)CCCCCCC)[C@@](O)(O4)C(C)(C)/C=C/[C@@H](C1)O2)O3` [MERLE 27], for which, in series [4], the inhibitory constant (Ki) amounted to 3 ± 0.06 nM.
`CC(=O)O[C@@]12C[C@@H](C)[C@@]3(O)[C@@H](C=C(CO)C[C@]4(O)C(=O)C(C)=C[C@@H]34)[C@@H]1C2(C)C` [Prostratin]: the half-maximal effective concentration (EC50) in series [1] (Human immunodeficiency virus 1) was 130 nM. The selectivity ratio in series [1] (ratio of the CC50 to the EC50) worked out at 2.8. The CC50 in the series “in vitro” turned out to be 370 nM. This molecule also came in with a CCEC50 in series [2] of over 50. In addition, in series [3], the “Max signal (% of control)” value is listed as 274 % of control and the “Conc (uM) at Max” value is 27.78 µM. Also, in series [3] (Human immunodeficiency virus 1), the EC50 stood at 1080 nM.
